From ChEMBL document CHEMBL5316275 (J Med Chem, 2023) come the findings set out here.

The data set concerns the target Albumin (Homo sapiens, UniProt P02768). Description: Binding affinity to human serum albumin assessed as association constant measured after 18 hrs by equilibrium dialysis method.

Albumin, sequence (P02768 whole entry): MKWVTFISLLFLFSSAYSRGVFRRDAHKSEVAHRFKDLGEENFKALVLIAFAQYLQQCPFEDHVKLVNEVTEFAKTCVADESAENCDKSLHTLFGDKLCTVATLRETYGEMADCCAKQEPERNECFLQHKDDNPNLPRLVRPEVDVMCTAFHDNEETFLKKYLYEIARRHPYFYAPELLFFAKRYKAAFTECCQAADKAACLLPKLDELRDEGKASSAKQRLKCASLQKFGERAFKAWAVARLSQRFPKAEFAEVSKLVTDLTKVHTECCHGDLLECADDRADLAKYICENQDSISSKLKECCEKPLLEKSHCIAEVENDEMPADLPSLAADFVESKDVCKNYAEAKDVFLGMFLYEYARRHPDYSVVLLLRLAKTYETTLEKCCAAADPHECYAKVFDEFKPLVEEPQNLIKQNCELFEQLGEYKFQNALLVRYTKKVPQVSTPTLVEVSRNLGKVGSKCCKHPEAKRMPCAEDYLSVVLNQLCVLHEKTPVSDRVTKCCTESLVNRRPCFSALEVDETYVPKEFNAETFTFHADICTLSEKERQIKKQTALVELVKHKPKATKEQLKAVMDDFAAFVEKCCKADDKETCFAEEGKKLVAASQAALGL

`COC(=O)CC/C(C)=C/Cc1c(O)c2c(c(C)c1OC)COC2=O`: the K was 1.91 10^5/M. For `COc1c(C)c2c(c(O)c1C/C=C(\C)CCC(=O)OCCN1CCOCC1)C(=O)OC2` [MYCOPHENOLATE MOFETIL], the K was 0.83 10^5/M.
